Like-named read-outs stand apart in the source and are kept apart here.
Experiments:
[1] = biological target: T1, SF9 affinity purified rat farnesyl protein transferase (Rattus norvegicus, UniProt Q02293+Q04631); assay: PFT inhibitory activity; assay type: biochemical
T1 construct: made in house; host or cells: Sf9 insect cells (baculovirus system, inferred from b7)
Method: The protein:farnesyltransferase (PFT) or farnesyl protein transferase (FPT) inhibitory activity of compounds of the present invention were assayed in HEPES buffer (pH 7.4) containing 5 mM potassium phosphate and 20 μM ZnCl2. The solution also contained 5 mM DTT (dithiothreitol), 5 mM MgCl2 and 0.1% PEG 8000. Assays were performed in 96 well plates (Wallec) and employed solutions composed of varying concentrations of a compound of the present invention in 100% DMSO (dimethylsulfoxide). Upon addition of both substrates, radiolabeled farnesyl pyrophosphate ([1-^3 H], specific activity 15-30 Ci/mmol, final concentration 134 nM) and (biotinyl)-Ahe-Thr-Lys-Cys-Val-Ile-Met ([3aS[3a alpha, 4 beta, 6a alpha]-hexahydro-2-oxo-1H-thieno[3,4-d]imidazole-5-pentanoic acid]-[7-aminoheptanoic acid]-Thr-Lys-Cys-Val-Ile-Met) (Ahe is 7-aminoheptanoic acid, Thr is threonine, Lys is lysine, Cys is cysteine, Val is valine, Ile is isoleucine and Met is methionine) (final concentration 0.2 μM), the enzyme reaction was started by addition of SF9 affinity purified rat farnesyl protein transferase. After incubation at 30° C. for 30 minutes, the reaction was terminated by diluting the reaction 2.5-fold with a stop buffer containing 1.5 M magnesium acetate, 0.2 M H3 PO4, 0.5% BSA (bovine serum albumin), and strepavidin beads (Amersham) at a concentration of 1.3 mg/mL. After allowing the plate to settle for 30 minutes at room temperature, radioactivity was quantitated on a microBeta counter (Model 1450, Wallec). The assay was also carried out without 5 mM potassium phosphate.

[2] = system: ras farnesylation in ras-transformed cells; assay: Gel shift assay; assay type: cell-based; conditions: 18-hour incubation
Method: Twenty-four hours after planting 2×10^6 ras-transformed cells per treatment condition, the farnesylation inhibitor is added at varying concentrations. Following an 18-hour incubation period, cells are lysed in phosphate-buffered saline containing 1% Triton X-100, 0.5% sodium deoxycholate, and 0.1% SDS (sodium dodecyl sulfate), pH 7.4 in the presence of several protease inhibitors (PMSF (phenylmethylsulfonylfluoride), antipain, leupeptin, pepstatin A, and aprotinin all at 1 μg/mL). Ras protein is immunoprecipitated from the supernatants by the addition of 3 μg v-H-ras Ab-2 (Y13-259 antibody from Oncogene Science). After overnight immunoprecipitation, 30 μL of a 50% protein G-Sepharose slurry (Pharmacia) is added followed by 45-minute incubation. Pellets are resuspended in 2× tris-glycine loading buffer (Novex) containing 5% β-mercaptoethanol and then denatured by 5 minutes boiling prior to electrophoresis on 14% Tris-glycine SDS gels. Using Western transfer techniques, proteins are transferred to nitrocellulose membranes followed by blocking in blocking buffer. Upon overnight incubation with primary antibody (pan-ras Ab-2 from Oncogene Science), an antimouse HRP (horse radish peroxidase) conjugate secondary antibody (Amersham) is employed for detection of the ras protein. Blots are developed using ECL(enhanced chemiluminescence) techniques (Amersham).

H61 xenografts = assay: In vivo activity, H61 xenografts in NCR-NU mice
Method: Female NCR-NU mice were randomized and then inoculated with trocar fragments of H61 xenografts obtained from donor animals on Day 0 of the experiment. H61 cells are NIH3T3 cells that have been transfected and transformed with mutant human H-ras. The animals were then re-randomized to treatment groups. Tumor-bearing mice were then treated via subcutaneous (SC) or interperitoneal (IP) injections of Example 1 every 12 hours at various dose levels for 14 days beginning on Day 1. Tumors were measured with calipers in two orthogonal dimensions several times per week for the duration of the experiment. Tumor burdens in milligrams were estimated from the caliper measurements by standard methods (mg=axb^2 /2, where a and b are the measurements of the major and minor axes of the tumor, respectively.) Inhibition of tumor growth was assessed at the last day of treatment (14). […] In mice given Example 1 IP at either 37 or 23 mg/kg/injection, no tumors were evident at the sites of inoculation, indicating complete (100%) inhibition of tumor growth.

[3] = system: H61 cells: NIH transformed 3T3 H-ras cells; assay: Clonogenic assay (6 well plates); assay type: cell-based; conditions: H61 cells in soft agar, colonies counted after Day 13
Method: Clonogenic Assay (6 well plates)
Sometime previous to setting up an actual test:
1. Make up 1.5% Bacto Agar in Milli-Q water and autoclave.
2. Make up 500 mL 2× DMEM-HG without phenol red by combining the following:
1 bottle DMEM base powder (Sigma D-5030)
Adjust pH to 7.1 with HCl; filter sterilize.
1. Set up makeshift water bath (beaker of water with thermometer, on hot plate) in the hood. Keep water temperature between 37° C. to 43° C.
2. […] 1.5% Bacto Agar for approximately 2 minutes on high, or until completely melted. Then let it cool somewhat before using it. (You can keep it from resolidifying by setting the bottle on the hot plate.) […]
Bottom Layer (0.6% agar) Top Layer (0.3% agar)
20% calf serum 20% calf serum
40% Bacto Agar (1.5%) 20% Bacto Agar (1.5%)
(H61 cells: NIH transformed
Depending on the volume of each layer needed, use either 50 mL conical tubes or 200 mL turnip tubes which can be floated in the "water bath".
4. Add 1 mL of bottom layer agar/medium to each well: deliver 1 mL warm agar/medium to a well; then using the tip of the pipet, spread the agar/medium around to completely cover the bottom. Repeat with next well.
5. Allow the plates to set at room temperature for about 5 minutes until the bottom layer solidifies.
6. Label sterile Falcon 2054 (12×75 mm) tubes and add appropriate volume of drug solutions into them.
7. Aliquot 4 μL of DMSO or drug solution per 1 mL of agar/medium to appropriate tubes; then add the agar/medium/cells to each tube. Always add 1 mL more than will actually be needed. Mix up and down in the pipet (gently); then deliver 1 mL to the center of each well. The upper layer is less viscous, so it will generally spread out over the bottom layer unaided. If necessary, rotate the plane of the plate gently to spread the top layer evenly over the bottom layer.
8. Let plates set for 5 or 10 minutes at room temperature to solidify, then put into 5% CO2, 37° C. incubator.
9. On Day 13, add 0.5 mL of INT (tetrazolium 1 mg/mL in Milli-Q H2 O, filter sterilized) and return plates to incubator.

[4] = HEPES buffer pH 7.4 with 5 mM potassium phosphate, read-out: PFT Inhibitory Activity IC50 (μM) HEPES and 5 mM K3 PO4
[5] = HEPES buffer pH 7.4 without 5 mM potassium phosphate, read-out: PFT Inhibitory Activity IC50 (μM) HEPES
[6] = SC 96 mg/kg/injection every 12 hours for 14 days, last day of treatment (14)

| Molecule | IC50 [1, 4] [µM] | IC50 [1, 5] [µM] | Gel Shift (μM) M.E.D. (minimal effective dose to observe inhibition of ras farnesylation) [2] [µM] | inhibition of tumor growth (H61 xenografts; IP 23 mg/kg/injection every 12 hours for 14 days, no tumors evident at sites of inoculation) [%] | inhibition of tumor growth (H61 xenografts; IP 37 mg/kg/injection every 12 hours for 14 days, no tumors evident at sites of inoculation) [%] | inhibition of tumor growth (H61 xenografts; [6]) [%] | median tumor burden of the treated group (H61 xenografts; [6]) [mg] | inhibition of tumor growth (in words) (H61 xenografts; SC or IP every 12 hours for 14 days) | IC50 [3] [µM] | IC50 ([3]; 312 h) [µM] |
| --- | --- | --- | --- | --- | --- | --- | --- | --- | --- | --- |
| C/C=C/CN(CC(=O)NCC1(c2ccccc2)CCC1)C(=O)[C@H](Cc1cnc[nH]1)NC(=O)OCc1ccccc1 (stereo in doubt) [Example 10, [(S)-trans]-[1-(But-2-enyl-{[(1-phenyl-cyclobutylmethyl)-carbamoyl]-methyl}-carbamoyl)-2-(3H-imidazol-4-yl)-ethyl]-carbamic Acid benzyl Ester] | 0.36 | < 0.001 | ≤ 0.05 |  |  |  |  |  |  |  |
| O=C(CN(Cc1ccc(OCc2ccccc2)cc1)C(=O)[C@H](Cc1c[nH]cn1)NC(=O)OCc1ccccc1)NCC1(c2ccccc2)CCC1 [Example 1, (S)-[1-((4-Benzyloxy-benzyl)-{[1-(phenyl-cyclobutylmethyl)-carbamoyl]-methyl}-carbamoyl)-2-(1H-imidazol-4-yl)-ethyl]-carbamic Acid benzyl ester] | 0.006 | 0.075 | 0.02 | 100 | 100 | 73 | 672 | significantly inhibited tumor growth | 0.047 |  |
| O=C(CN(Cc1ccc(OCc2ccccc2)cc1)C(=O)[C@H](Cc1c[nH]cn1)NC(=O)OCc1ccccc1)NCC1(c2ccccc2)CC1 [Example 2] | 0.006 | 0.15 | 0.02 |  |  |  |  |  | 0.18 |  |
| O=C(CN(Cc1ccc(OCc2ccccn2)cc1)C(=O)[C@H](Cc1c[nH]cn1)NC(=O)OCc1ccccc1)NCC1(c2ccccc2)CCC1 [Example 3] | 0.0017 | 0.14 | 0.002 |  |  |  |  |  | 0.14 |  |
| Cc1ccc(CN(CC(=O)NCC2(c3ccccc3)CCC2)C(=O)[C@H](Cc2c[nH]cn2)NC(=O)OCc2ccccc2)cc1 [Example 4, (S)-[1-((4-Methyl-benzyl)-{[(1-phenyl-cyclobutyl-methyl)-carbamoyl]-methyl}-carbamoyl)-2-(1H-imidazol-4-yl)-ethyl]-carbamic Acid Benzyl Ester] | 0.0054 | 0.26 | 0.01 |  |  |  |  |  |  |  |
| O=C(CN(Cc1ccc(OCc2ccccc2)cc1)C(=O)[C@H](Cc1c[nH]cn1)NC(=O)OCc1ccccc1)NCC1(c2ccccc2)CCCC1 [Example 5, (S)-[1-((4-Benzyloxy-benzyl)-{[(1-phenyl-cyclopentylmethyl)-carbamoyl]-methyl}-carbamoyl)-2-(1H-imidazol-4-yl)-ethyl]-carbamic Acid benzyl Ester] | 0.018 | 0.32 | 0.2 |  |  |  |  |  |  | 0.32 |
| COc1ccc(CN(CC(=O)NCC2(c3ccccc3)CCC2)C(=O)[C@H](Cc2c[nH]cn2)NC(=O)OCc2ccccc2)cc1 [Example 6, (S)-[1-((4-Methoxy-benzyl)-{[(1-phenyl-cyclobutyl-methyl)-carbamoyl]-methyl}-carbamoyl)-2-(1H-imidazol-4-yl)-ethyl]-carbamic Acid benzyl Ester] | 0.0029 | 0.26 | 0.002 |  |  |  |  |  |  | 0.21 |
| Cc1ccc(CN(CC(=O)NCC2(c3ccccc3)CCC2)C(=O)[C@H](Cc2c[nH]cn2)NC(=O)N(C)Cc2ccccc2)cc1 [Example 7, (S)-2-(3-Benzyl-3-methyl-ureido)-3-(1H-imidazol-4-yl)-N-(4 methyl-benyl)-N-{[(1-phenyl-cyclobutylmethy)-carbomyl]-methyl}-propionamide] | 0.003 | 0.014 | 0.01 |  |  |  |  |  |  |  |
| CN(Cc1ccccc1)C(=O)N[C@@H](Cc1c[nH]cn1)C(=O)N(CC(=O)NCC1(c2ccccc2)CCC1)Cc1ccc(OCc2ccccc2)cc1 [Example 8, (S)-2-(3-Benzyl-3-methyl-ureido)-N-(4-benzyloxy-benzyl)-3-(1H-imidazol-4-yl)-N-{[(1-phenyl-cyclobutylmethyl)-carbamoyl]-methyl}-propionamide] | 0.015 | 0.068 | 0.01 |  |  |  |  |  |  |  |
| O=C(CN(Cc1ccc(OCc2ccccc2)cc1)C(=O)[C@H](Cc1c[nH]cn1)NC(=O)OCc1ccccc1)NCC1(c2c(Cl)cccc2Cl)CCC1 [Example 9, (S)-[1-[(4-Benzyloxy-benyl)-({[1-(2,6-dichlorophenyl)-cyclobutylmethyl]-carbamoyl}-methyl)-carbamoyl]-2-(1H-imidazol-4-yl)-ethyl]-carbamic Acid benzyl Ester] | 0.18 | 7 | > 0.2 |  |  |  |  |  |  |  |
| CCCN(CC(=O)NCC1(c2ccccc2)CCC1)C(=O)[C@H](Cc1cnc[nH]1)NC(=O)OCc1ccccc1 [Example 11] | 0.33 | < 0.001 | ≤ 0.05 |  |  |  |  |  |  |  |
| N-((1S)-1-(1H-4-imidazolylmethyl)-2-oxo-2-(2-oxo-2-[(1-phenylcyclobutyl)methyl]aminoethyl)[(1R)-1-phenylethyl]aminoethyl)carbamate [Example 12] | 0.34 | 0.002 | ≤ 0.05 |  |  |  |  |  |  |  |
